Consider 52 molecules from ChEMBL document CHEMBL1151969, “Melanin synthesis inhibitors from Lespedeza floribunda” (J Nat Prod, 2009).

SMILES strings stand for the structures. Where only a bound is given, the exact number is not on record here.

Series [1] is described as follows: Inhibition of melanin synthesis in NHEM cells assessed as [14C]thiouracil incorporation after 72 hrs by liquid scintillation counting. In kind it is functional, cell-based, Homo sapiens.
Series [2] in a line: Cytotoxicity against NHEM cells assessed as cell viability after 72 hrs by WST-8 assay. In kind it is cell-based. The note with it: human.

For the molecule `CC(C)=CCc1cc2c(c(CC=C(C)C)c1O)O[C@H](c1ccc(O)cc1)CC2=O`, the IC50 in series [1] (Homo sapiens, NHEM, 72 h) is 2.52 µM. Also, in series [2], the Activity result is “Non-toxic”.
Consider `CC(C)=CCc1c(O)c(CC=C(C)C)c2c(c1O)C(=O)C[C@@H](c1cc3c(cc1O)OC(C)(C)C=C3)O2` (stereo in doubt) [EUCHRENONE A3], for which the IC50 in series [1] (nhem) worked out at 1.02 µM.
For the molecule `CC(C)=CCc1c(O)c(CC=C(C)C)c2c(c1O)C(=O)C[C@@H](c1cc3c(cc1O)OC(C)(C)C=C3)O2` (stereo in doubt; 45) [EUCHRENONE A3], in series [1] (Homo sapiens, NHEM, 72 h), the IC50 stood at 1.51 µM. The Activity entry in series [2] is listed as “Non-toxic”.
In the case of `CC(C)=CCc1cc([C@@H]2CC(=O)c3c(O)c(CC=C(C)C)c(O)c(CC=C(C)C)c3O2)ccc1O` [AMORILIN], the IC50 in series [1] (Homo sapiens, NHEM, 72 h) came to 1.21 µM.
On the same count and under the same terms, the result for `CC(C)=CCc1cc([C@@H]2CC(=O)c3c(O)c(CC=C(C)C)c(O)c(CC=C(C)C)c3O2)cc(O)c1O` [AMORISIN] reads 3.6 µM; that for `OC[C@H]1O[C@@H](Oc2ccc(O)cc2)[C@H](O)[C@@H](O)[C@@H]1O` [ARBUTIN], 103 µM.
For `CC(C)=CCc1cc2c(cc1O)O[C@H](c1ccc(O)cc1)CC2=O` [BAVACHIN], in series [1] (Homo sapiens, NHEM, 72 h), the IC50 was 2.7 µM. Moreover, the Activity entry in series [2] is on record as “Non-toxic”.
As to `CC(C)=CCc1c(O)c2c(c3c1OC(C)(C)C=C3)O[C@H](c1ccc(O)cc1)CC2=O` [CAJAFLAVANONE], the IC50 in series [1] (Homo sapiens, NHEM, 72 h) came out at 8.41 µM. In addition, the Activity result in series [2] is “Non-toxic”.
As to `CC(C)=CCc1c(O)ccc2c1O[C@H]1c3ccc(O)c(CC=C(C)C)c3OC[C@@H]21` [ERYBRAEDIN A], the IC50 in series [1] (Homo sapiens, NHEM, 72 h) worked out at 3.84 µM. Moreover, in series [2], the Activity entry is reported as “Non-toxic”.
In the same order, the values of `CC(C)=CCc1cc2c(cc1O)OC[C@H]1c3ccc(O)c(CC=C(C)C)c3O[C@@H]21` [ERYBRAEDIN C] are 2 µM and “Non-toxic”.
In the case of `CC(C)=CCc1c(O)ccc2c1OC[C@H]1c3ccc4c(c3O[C@@H]21)C=CC(C)(C)O4` [ERYBREADIN B], the IC50 in series [1] (Homo sapiens, NHEM, 72 h) turned out to be 2.93 µM. Also, the Activity entry in series [2] is reported as “Non-toxic”.
The matching figures for `CC(C)=CCc1cc2c(cc1O)OC[C@H]1c3ccc4c(c3O[C@@H]21)C=CC(C)(C)O4` [FOLITENOL]: 1.84 µM and “Non-toxic”.
`O=c1c(-c2ccc(O)cc2)coc2cc(O)cc(O)c12` [GENISTEIN]: the IC50 in series [1] (Homo sapiens, NHEM, 72 h) was 29.2 µM. In addition, the Activity entry in series [2] is reported as “Non-toxic”.
`Oc1ccc(O)cc1` [HYDROQUINONE]: in series [1] (Homo sapiens, NHEM, 72 h), the IC50 is 2.2 µM.
On the same count and under the same terms, the result for `CC(C)=CCc1cc([C@@H]2CC(=O)c3c(O)c(CC=C(C)C)c(O)c(CC=C(C)C)c3O2)c(O)cc1O` [LESPEDEZAFLAVANONE H] reads 7.8 µM.
`COc1ccc([C@@H]2CC(=O)c3cc(CC=C(C)C)c(O)c(CC=C(C)C)c3O2)cc1` [LESPEFLORIN A1]: the IC50 in series [1] (Homo sapiens, NHEM, 72 h) was determined as 3.96 µM. For the same molecule, the Activity entry in series [2] is “Non-toxic”.
In the same order, the values of `COc1ccc([C@@H]2CC(=O)c3ccc(O)c(CC=C(C)C)c3O2)cc1` [LESPEFLORIN A2] are 3.86 µM and “Non-toxic”.
On to `CC(C)=CCc1cc2c(c(CC=C(C)C)c1O)O[C@H](c1ccc3c(c1)C=CC(C)(C)O3)CC2=O` [LESPEFLORIN A3], for which the IC50 in series [1] (Homo sapiens, NHEM, 72 h) stood at 1.5 µM. Also, the Activity result in series [2] is given as “Non-toxic”.
In the same order, the values of `COc1cc(O)ccc1[C@@H]1CC(=O)c2c(O)cc3c(c2O1)C=CC(C)(C)O3` [LESPEFLORIN A4] are 4.93 µM and “Non-toxic”.
In the same order, the values of `CC(C)=CCc1cc([C@H]2Oc3cc(O)c(CC=C(C)C)cc3C(=O)[C@@H]2O)ccc1O` [LESPEFLORIN B1] are 2.87 µM and “Non-toxic”.
In the same order, the values of `CC(C)=CCc1cc2c(c(CC=C(C)C)c1O)O[C@H](c1ccc(O)cc1)[C@@H](O)C2=O` [LESPEFLORIN B2] are 2.19 µM and “Non-toxic”.
Turning to `CC(C)=CCc1cc([C@H]2Oc3c(cc(CC=C(C)C)c(O)c3CC=C(C)C)C(=O)[C@@H]2O)ccc1O` [LESPEFLORIN B3], the IC50 in series [1] (Homo sapiens, NHEM, 72 h) came out at 0.68 µM. Also, the Activity entry in series [2] is “Non-toxic”.
In the same order, the values of `CC(C)=CCc1cc([C@H]2Oc3c(CC=C(C)C)c(O)c(CC=C(C)C)c(O)c3C(=O)[C@@H]2O)ccc1O` [LESPEFLORIN B4] are 1.23 µM and “Non-toxic”.
The matching figures for `CC(C)=CCc1cc(C(=O)[C@@H](O)Cc2ccc(O)cc2)c(O)cc1O` [LESPEFLORIN C1]: > 146 µM and “Non-toxic”.
The matching figures for `COc1ccc(C[C@H](O)C(=O)c2cc(CC=C(C)C)c(O)cc2O)cc1` [LESPEFLORIN C2]: 28.1 µM and “Non-toxic”.
As for `COc1cc(O)c(CC=C(C)C)cc1C(=O)[C@@H](O)Cc1ccc(O)cc1` [LESPEFLORIN C3], in series [1] (Homo sapiens, NHEM, 72 h), the IC50 stood at 1.68 µM. Further, the Activity entry in series [2] is reported as “Non-toxic”.
The matching figures for `COc1ccc(C[C@H](O)C(=O)c2cc(CC=C(C)C)c(O)cc2OC)cc1` [LESPEFLORIN C4]: > 135 µM and “Non-toxic”.
In the same order, the values of `CC(C)=CCc1cc(C(=O)[C@@H](O)Cc2ccc(O)cc2)c(O)c(C)c1O` [LESPEFLORIN C5] are > 135 µM and “Non-toxic”.
On to `CC(C)=CCc1cc(C(=O)[C@@H](O)Cc2ccc(O)cc2)c(O)c(CC=C(C)C)c1O` [LESPEFLORIN C6], for which, in series [1] (Homo sapiens, NHEM, 72 h), the IC50 was determined as 22 µM. Further, the Activity entry in series [2] was “Non-toxic”.
In the same order, the values of `COc1cc2c(cc1C(=O)[C@@H](O)Cc1ccc(O)cc1)C=CC(C)(C)O2` [LESPEFLORIN C7] are 3.78 µM and “Non-toxic”.
In the same order, the values of `COc1c([C@@H]2COc3c(ccc(O)c3CC=C(C)C)C2=O)ccc(O)c1CC=C(C)C` [LESPEFLORIN D1] are 1.47 µM and “Non-toxic”.
As for `COc1c(O)ccc2c1OCC(c1ccc(O)c(OC)c1OC)=C2` [LESPEFLORIN E1], the IC50 in series [1] (Homo sapiens, NHEM, 72 h) worked out at 4.29 µM. The Activity entry in series [2] is given as “Non-toxic”.
In the case of `COc1c(O)ccc(-c2cc3ccc(O)c(OC)c3o2)c1OC` [LESPEFLORIN F1], the IC50 in series [1] (Homo sapiens, NHEM, 72 h) was 10.8 µM. In addition, the Activity entry in series [2] is “Non-toxic”.
In the case of `COc1cc2c(CO)c(-c3ccc(O)cc3O)oc2c(CC=C(C)C)c1O` [LESPEFLORIN F2], in series [1] (Homo sapiens, NHEM, 72 h), the IC50 was 8.27 µM. The Activity entry in series [2] is reported as “Non-toxic”.
The matching figures for `COc1cc2c(cc1O)O[C@H]1c3ccc(O)c(CC=C(C)C)c3OC[C@@H]21` [LESPEFLORIN G1]: 3.73 µM and “Non-toxic”.
On to `COc1c(O)cc2c(c1CC=C(C)C)O[C@H]1c3cc(CC=C(C)C)c(O)cc3OC[C@@H]21` [LESPEFLORIN G2], for which, in series [1] (Homo sapiens, NHEM, 72 h), the IC50 is 2.07 µM. For the same molecule, the Activity result in series [2] is recorded as “Non-toxic”.
The matching figures for `COc1c(O)cc2c(c1CC=C(C)C)O[C@H]1c3c(cc(O)c(CC=C(C)C)c3OC)OC[C@@H]21` [LESPEFLORIN G3]: 2.03 µM and “Non-toxic”.
The matching figures for `CC(C)=CCc1cc2c(cc1O)OC[C@H]1c3cc(C)c(O)c(CC=C(C)C)c3O[C@@H]21` [LESPEFLORIN G4]: 3.24 µM and “Non-toxic”.
The matching figures for `CC(C)=CCc1c(O)c(C)cc2c1O[C@H]1c3ccc(O)c(CC=C(C)C)c3OC[C@@H]21` [LESPEFLORIN G5]: 1.52 µM and “Non-toxic”.
Turning to `COc1c(C)cc2c(c1CC=C(C)C)O[C@H]1c3ccc(O)cc3OC[C@@H]21` [LESPEFLORIN G6], in series [1] (Homo sapiens, NHEM, 72 h), the IC50 was 6.16 µM. Besides, the Activity entry in series [2] is reported as “Non-toxic”.
In the same order, the values of `COc1cc2c(c(CC=C(C)C)c1O)O[C@H]1c3ccc(O)cc3OC[C@@H]21` [LESPEFLORIN G7] are 6.02 µM and “Non-toxic”.
As for `COc1ccc2c(c1)OC[C@H]1c3cc(O)c(OC)c(CC=C(C)C)c3O[C@@H]21` [LESPEFLORIN G8], the IC50 in series [1] (Homo sapiens, NHEM, 72 h) amounted to 1.63 µM. The Activity result in series [2] is reported as “Non-toxic”.
In the same order, the values of `COc1ccc2c(c1)OC[C@H]1c3cc(OC)c(O)c(CC=C(C)C)c3O[C@@H]21` [LESPEFLORIN G9] are 8.38 µM and “Non-toxic”.
The matching figures for `CC(C)=CCc1c(O)c(C)cc2c1O[C@H]1c3ccc(O)cc3OC[C@@H]21` [LESPEFLORIN G10]: 1.44 µM and “Non-toxic”.
In the same order, the values of `CC(C)=CCc1cc2c(cc1O)OC[C@H]1c3cc(O)c4c(c3O[C@@H]21)C=CC(C)(C)O4` [LESPEFLORIN G11] are 2.9 µM and “Non-toxic”.
For the molecule `COc1ccc2c(c1)OC[C@H]1c3cc(O)c4c(c3O[C@@H]21)C=CC(C)(C)O4` [LESPEFLORIN G12], the IC50 in series [1] (Homo sapiens, NHEM, 72 h) was determined as 8.34 µM. Moreover, the Activity entry in series [2] is on record as “Non-toxic”.
Turning to `COc1ccc2c(c1)OCc1c-2oc2c(CC=C(C)C)c(O)c(O)cc12` [LESPEFLORIN H1], the IC50 in series [1] (Homo sapiens, NHEM, 72 h) worked out at 27 µM. In addition, the Activity result in series [2] is listed as “Non-toxic”.
Take `COc1ccc2c(c1)OCc1c-2oc2c3c(c(O)cc12)OC(C)(C)C=C3` [LESPEFLORIN H2]: the IC50 in series [1] (Homo sapiens, NHEM, 72 h) was found to be 1.48 µM. In addition, the Activity result in series [2] is reported as “Non-toxic”.
The matching figures for `CC(C)=CCc1cc2c(cc1O)oc(=O)c1c3cc(O)c(O)cc3oc21` [LESPEFLORIN I1]: 3.21 µM and “Non-toxic”.
The matching figures for `CC(C)=CCc1cc2c(cc1O)oc(=O)c1c3cc(O)c(O)c(CC=C(C)C)c3oc21` [LESPEFLORIN I2]: 28.3 µM and “Non-toxic”.
Consider `COc1ccc2c(c1)oc(=O)c1c3cc(O)c(O)c(CC=C(C)C)c3oc21` [LESPEFLORIN I3], for which the IC50 in series [1] (Homo sapiens, NHEM, 72 h) is 27.3 µM. In addition, the Activity entry in series [2] is recorded as “Non-toxic”.
For the molecule `CC(C)=CCc1cc(-c2oc3c(CC=C(C)C)c(O)c(O)cc3c2C(=O)c2cc3c(c(CC=C(C)C)c2O)O[C@H]2c4ccc(O)c(CC=C(C)C)c4OC[C@@H]32)c(O)cc1O` [LESPEFLORIN J1], the IC50 in series [1] (Homo sapiens, NHEM, 72 h) was 39.6 µM. Besides, in series [2], the Activity result is recorded as “Non-toxic”.
